According to US20050239654A1, “Synergistically acting herbicidal mixtures” (priority 2002, published 2005):

Experiments:
Test in all cases: Herbicidal action, post-emergence treatment, greenhouse
Assay type in all cases: in vivo
[1] = system: Commelina benghalensis; conditions: Table 4, 3.91 g/ha ai
Source text: (§1) The mixtures according to the invention were applied pre- or post-emergence (foliar treatment). The herbicidal compounds of component B and, if desired, of component C were applied in the formulation in which they are present as commercially available product.
(§2) The herbicidally active compounds of components A), B) and, if desired, C) were applied in succession or jointly, in the latter case in some cases as a tank mix and in some cases as a ready-mix, in the form of emulsions, aqueous solutions or suspensions, the vehicle being water (300-400 l/ha). In the case of the field trials, application was effected with the aid of a mobile plot sprayer.
(§3) The test period extended over 3 to 8 weeks, and the stands were also observed at later points in time.
(§4) Damage by the herbicidal compositions was evaluated with reference to a scale of 0% to 100 in comparison with untreated control plots. 0 means no damage and 100 means complete destruction of the plants.
(§5) In these examples, the value E at which only an additive effect of the individual active ingredients is to be expected was calculated by the method of S. R. Colby (Calculating synergistic and antagonistic responses of herbicide combinations, Weeds 15, 20 pp (1967)).
(§6) This was done using the formula [formula] where • X=Percentage of the herbicidal action of X at an application rate of x; • Y=Percentage of the herbicidal action of Y at an application rate of Y; • E=expected herbicidal action of X+Y at rates of application x+y (in %); or the formula [formula] where • X=Percentage of the herbicidal action of X at an application rate of x; • Y=Percentage of the herbicidal action of Y at an application rate of y; • Z=Percentage of the herbicidal action of Z at an application rate of z; • E=expected herbicidal action of X+Y+Z at rates of application x+y+z (in %)
(§7) If the value observed exceeds the value E calculated in accordance with Colby's formula, then synergism is present.

[2] = system: Amaranthus retroflexus
Source text: as §1, §2, §3, §4, §5, §6, §7

[3] = system: Avena fatua
Source text: as §1, §2, §3, §4, §5, §6, §7

[4] = system: Galium aparine
Source text: as §1, §2, §3, §4, §5, §6, §7

[5] = system: Abutilon theophrasti
Source text: as §1, §2, §3, §4, §5, §6, §7

[6] = system: Pharbitis purpurea; conditions: Table 12, 62.5 g/ha ai
Source text: as §1, §2, §3, §4, §5, §6, §7

[7] = system: Polygonum persicaria
Source text: as §1, §2, §3, §4, §5, §6, §7

[8] = system: Brachiaria plantaginea
Source text: as §1, §2, §3, §4, §5, §6, §7

[9] = system: Echinochloa crus-galli
Source text: as §1, §2, §3, §4, §5, §6, §7

With Cc1c(C(=O)c2cnn(C)c2O)ccc(S(C)(=O)=O)c1C1=NOCC1 [Ia.29, 4-[2-methyl-3-(4,5-dihydroisoxazol-3-yl)-4-methylsulfonyl-benzoyl]-1-methyl-5-hydroxy-1H-pyrazole] the “Commelina benghalensis Damage” value [1] was 50%, the “Amaranthus retroflexus Damage” value ([2]; Table 5, 0.98 g/ha ai) was 60% and the “Amaranthus retroflexus Damage” value ([2]; Table 7, 0.98 g/ha ai) was 60%. The “Avena fatua Damage” value ([3]; Table 5, 0.98 g/ha ai) was 0%, the “Avena fatua Damage” value ([3]; Table 6, 1.95 g/ha ai) was 10% and the “Galium aparine Damage” value ([4]; Table 7, 0.98 g/ha ai) was 20%. For the same compound, the “Galium aparine Damage” value ([4]; Table 8, 1.95 g/ha ai) was 30%, the “Abutilon theophrasti Damage” value ([5]; Table 3, 0.98 g/ha ai) was 30% and the “Abutilon theophrasti Damage” value ([5]; Table 9, 7.81 g/ha ai) was 85%.
CCNc1nc(Cl)nc(NC(C)C)n1 [atrazine] was tested, and the “Pharbitis purpurea Damage” value [6] was 80%, the “Amaranthus retroflexus Damage” value ([2]; Table 7, 15.6 g/ha ai) was 40% and the “Polygonum persicaria Damage” value ([7]; Table 11, 125 g/ha ai) was 60%. The “Polygonum persicaria Damage” value ([7]; Table 13, 62.5 g/ha ai) was 40%, the “Polygonum persicaria Damage” value ([7]; Table 17, 62.5 g/ha ai) was 40% and the “Brachiaria plantaginea Damage” value ([8]; Table 10, 125 g/ha ai) was 25%. The “Brachiaria plantaginea Damage” value ([8]; Table 16, 62.5 g/ha ai) was 20%, the “Galium aparine Damage” value ([4]; Table 7, 15.6 g/ha ai) was 0% and the “Galium aparine Damage” value ([4]; Table 8, 31.25 g/ha ai) was 20%. The “Galium aparine Damage” value ([4]; Table 11, 125 g/ha ai) was 60%, the “Galium aparine Damage” value ([4]; Table 15, 125 g/ha ai) was 60% and the “Echinochloa crus-galli Damage” value ([9]; Table 10, 125 g/ha ai) was 30%. The “Echinochloa crus-galli Damage” value ([9]; Table 12, 62.5 g/ha ai) was 20%, the “Echinochloa crus-galli Damage” value ([9]; Table 14, 125 g/ha ai) was 30% and the “Echinochloa crus-galli Damage” value ([9]; Table 16, 62.5 g/ha ai) was 20%. The “Abutilon theophrasti Damage” value ([5]; Table 9, 125 g/ha ai) was 30% and the “Abutilon theophrasti Damage” value ([5]; Table 14, 125 g/ha ai) was 30%.
